Assays:
[1] = stability (isomerization) of acetyl sphingosine isomers in phosphate buffer pH 7.4 (LC-ELSD); assay type: physicochemical
Experimental: To a solution of 1-O-AS (0.25 mg) or 3-O-AS (0.25 mg) in water (400 μl) and DMSO (50 μl) at RT was added sodium phosphate buffer (pH 7.4, 0.1 M, 50 μl). The solution was mixed homogeneously with micropipette and was incubated at 25 °C for 10 min. Reverse-phase HPLC was performed using Agilent 1220 coupled with Agilent 1260 Infinity ELSD. Phenomenex Kinetex 1.7 μm C8 100 A ([…] LC column) at a flow rate of 0.5 ml min^−1 was used. A gradient of acetonitrile with 0.1% formic acid was used as an eluent.

COX2 = assay: SphK1-mediated COX2 acetylation with [14C] acetyl-CoA (ATP competition, SphK1 mutants; Supplementary Fig 1h,i); assay type: biochemical, human; details: ATP 0-1000 µM as competitor of acetyl-CoA
Source text: Single point mutations in SphK1 (R56A, R57A, R24A, R185A, D178A, and F192A) and COX2 (S565A, N181A, T564A, and S567A) were generated using the In-Fusion Cloning Kits (Clontech) and ORF cDNA expression plasmids of human SphK1 and COX2 gene (Sino Biological Inc, HG15679-NH and HG12036-NH), according to the manufacturer’s instructions. The forward and reverse primers described in Supplementary Table 4. The SphK1 WT, SphK1 mutants, COX2 WT, and COX2 mutant plasmids were transformed in the One shot TOP 10 competent cell (Invitrogen). The bacteria were grown in Luria-Bertani (LB, Invitrogen) plates supplemented with 50 μg ml^−1 kanamycin (Sigma-Aldrich) at 37 °C. The bacterial cell pellets were resuspended in lysis buffer containing 20 mM sodium phosphate (GE Healthcare), 500 mM NaCl (GE Healthcare), 20 mM imidazole (pH 7.4) (GE Healthcare), 0.2 mg ml^−1 lysozyme (Sigma-Aldrich), 20 μg ml^−1 DNase I (Roche), 1 mM MgCl2 (Sigma-Aldrich), and 1 mM PMSF (Sigma-Aldrich) before being lysed by sonication and clarified by centrifugation at 15,493×g for 10 min. Proteins were purified from the soluble fraction using His-Spin Trap columns (GE Healthcare) and the binding and acetylation assays were performed.
Acetylation assays were performed according to previously described procedures with minor modifications. […] N-AS (2 μCi, ARC UK Ltd, ARC-1024) at 37 °C for 2 h. [^14C] aspirin (2 μCi, ARC UK Ltd, ARC-0473) was conducted as the positive control. The reactions were terminated by placing the reaction tubes in ice for 5 min. To evaluate in vivo neuronal and microglial COX2 acetylation, 10 μCi [^14C] N-AS was orally administrated to 9-months-old WT and APP/PS1 mice. After 1 h, neuron and microglia were isolated and sonicated in culture media. To immunoprecipitate acetylated COX2, the sample was incubated with COX2 antibody (Abcam, ab15191) at 4 °C for 24 h and precipitated by adding 50 μl of protein-A sepharose (GE Healthcare). Acetylated COX2 proteins bound to the beads were analyzed using a Tri-Carb 3110TR liquid scintillation counter (Perkin-Elmer).

[2] = test system: immortalized human microglia; assay: LM-SPM profile of human microglia (LC-MS/MS, Supplementary Table 3, Fig 6d); assay type: cell-based
[3] = test system: immortalized human microglia; assay: live-cell phagocytosis assay (bead uptake, Supplementary Fig 6e,f); assay type: cell-based; details: zileuton with N-AS in Aβ-treated human microglia
Experimental: Live-cell phagocytosis assays were performed according to previously described procedures with minor modifications. Briefly, in a glass bottom cell culture dish (SPL, 101350), adult SV40 immortalized human microglia cells (Applied Biologics Materials, T0251) were seeded for phagocytosis assay. […] After incubation, the microglia were treated with 0 or 2.5 μM N-AS (Sigma-Aldrich, 01912) at 37 °C for 2 h. FITC beads (Invitrogen) preopsonized in FBS (Gibco) were added at a concentration at 0.01% and then immediately observed using a laser scanning confocal microscope equipped with a live cell chamber system (FV3000, Olympus) for 2 h. Confocal images were collected every 5 min for 2 h and analyzed using the ImageJ software (National Institutes of Health).

[4] = test system: immortalized human microglia; assay: ac-S565 COX2 in human microglia (western blot, immunofluorescence, Supplementary Fig 6b,c); assay type: cell-based; details: zileuton with N-AS in Aβ-treated human microglia vs without zileuton
Experimental: To confirm the generation and roles of N-AS in neurons, cells from E18 C57BL/6 mice were prepared as previously described. Cortices were dissected and then dissociated followed by incubation in papain (Worthington) at 37 °C for 15 min. Neurons were plated on poly-L-lysine-coated coverslips with neuronal culture medium, serum-free Neurobasal medium (Gibco) containing 2% B27 supplements (Gibco), 1 mM Glutamax supplement (Gibco), and 100 U ml^−1 streptomycin/ 100 U ml^−1 penicillin (Gibco) at 37 °C in a humidified atmosphere of 5% CO2. Aβ 1–42 (10 μM, 24 h, Invitrogen, 03112) was exposed to neurons and the cells were analyzed for the generation and roles of N-AS. Primary astrocyte cultures were prepared from C57BL/6 mice as described previously. In brief, after removal of the meninges, postnatal day 7 (P7) mouse brain tissues were minced and incubated in a rocking water bath at 37 °C for 30 min in the presence of 0.25% trypsin-EDTA (Sigma-Aldrich). Enzyme-digested dissociated cells were triturated with astrocyte-specific medium (DMEM/F12 containing 10% FBS and 1% penicillin-streptomycin) and centrifuged at 155×g for 8 min. The pellet was resuspended in astrocyte-specific medium and passed through a 40-μm cell strainer. The filtrate was allowed pre-adherence for 30 min to remove any contamination from fibroblasts before being seeded in dishes and the addition of astrocyte-specific medium. To split the cells, Ara-C was added to the dishes and they were then placed in a heated shaker for 6–7 h. The medium was removed from the dishes, and trypsin-EDTA was added to the dish and incubated at 37 °C for 5–10 min. After centrifugation at 155×g for 8 min, the supernatant was removed, and the astrocytes were maintained in culture by feeding […] with astrocyte-specific medium. Primary microglia cultures were prepared from C57BL/6 mice as described previously. In brief, the cortices of 2-months-old mice were minced in Hibernate A (Gibco)/B27 supplements (Gibco) medium and dissociated using papain (Worthington) solution. After tissue trituration, cells were separated by Optiprep (Sigma-Aldrich) density gradient centrifugation. Microglia were plated with microglia-specific medium (DMEM/F12 containing 10% FBS and 1% penicillin-streptomycin). The immortalized human microglia (Applied Biologics Materials, T0251) were cultured in PriGrow III (Applied Biologics Materials, TM003) (supplemented with 10% FBS and 1% penicillin-streptomycin) at 37 °C in a humidified atmosphere of 5% CO2. […] The human microglia treated with Aβ 1–42 and/or zileuton was incubated with N-AS (2.5 μM, 2 h, Sigma-Aldrich, 01912), and were analyzed for the generation and roles of N-AS.
Thioflavin S (Sigma-Aldrich) staining was carried out according to previously described procedures. We used 6E10 (mouse, 1:100, Signet, SIG39300), anti-20G10 (mouse, 1:1000, provided by D. R. Howlett, GlaxoSmithKline, Harlow, Essex, UK) for Aβ42, anti-G30 (rabbit, 1:1000, provided by D. R. Howlett) for Aβ40, SMA (mouse, 1:400, Sigma-Aldrich, A2547), AT8 (mouse, 1:500, Thermo Fisher Scientific, MN1020), Caspase-3 (mouse, 1:200, Novus Biologicals, NB100-56708), ac-S565 (rabbit, 1:100), COX2 (mouse, 1:250, Thermo Fisher Scientific, 35-8200), Iba1 (rabbit, 1:500, Wako, 019-19941 and goat, Abcam, ab5076), NeuN (mouse, 1:500, Millipore, MAB177), GFAP (rabbit, 1:500, Dako, N1506 and chicken, 1:500, Abcam, ab4674), and Lamp1 (mouse, 1:200, Abcam, ab24170). The sections were analyzed with a laser-scanning confocal microscope (FV3000; Olympus) or with a BX51 microscope (Olympus). MetaMorph software (Molecular Devices) was used to quantification. Three-dimensional reconstruction of microglia was recorded and analyzed using IMARIS software (Bitplane)[11]. […]

CCCCCCCCCCCCC/C=C/[C@@H](O)[C@@H](N)COC(C)=O.O=C(O)C(F)(F)F [1-O-AS, (2S,3R,E)-1-Acetoxy-3-hydroxyoctadec-4-en-2-aminium trifluoroacetate]
time to isomerization to N-AS [1]: less than 10 min

CCCCCCCCCCCCC/C=C/[C@@H](OC(C)=O)[C@@H](N)CO.O=C(O)C(F)(F)F [3-O-AS, (2S,3R,E)-3-Acetoxy-1-hydroxyoctadec-4-en-2-aminium trifluoroacetate]
time to isomerization to N-AS [1]: less than 10 min

Nc1ncnc2c1ncn2[C@@H]1O[C@H](COP(=O)(O)OP(=O)(O)OP(=O)(O)O)[C@@H](O)[C@H]1O [ATP]
SphK1-mediated COX2 acetylation, in words (COX2): inhibited in a concentration dependent manner

CC(c1cc2ccccc2s1)N(O)C(N)=O (centres unmarked) [zileuton, reference compound]
LTB4, in words ([2]; zileuton treatment): LTB4 was not detected
PGE2, in words ([2]; zileuton treatment): reduced PGE2
production of N-AS-triggered SPMs, in words ([2]; zileuton with N-AS in Aβ-treated human microglia): inhibited
restoration of phagocytic capacity, in words [3]: inhibited
N-AS-induced COX2 acetylation, in words [4]: no significant

From article PMC7217877, “N-AS-triggered SPMs are direct regulators of microglia in a model of Alzheimer’s disease” (Nature Communications, 2020)
